Experimental data published in US20250340510A1, “Substituted Phenylbenzenesulfonamide Derivatives and Uses Thereof” (Nine Square Therapeutics Corporation, priority 2022, published 2025).

What was measured:
[1] = biological target: TRPML1 (Homo sapiens, UniProt Q9GZU1); experiment: Calcium flux in HEK293 overexpressing TRPML1 plasma membrane variant (FLIPR, Calcium 6 dye); assay type: cell-based; settings: HEK293/TRPML1-PM clone A5 cells; 4-parameter logistic fit; read-out: TRPML1 calcium flux (FLIPR) dose response: EC50
Outline: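 HEK293 clone expressing plasma-membrane-targeted TRPML1 (N- and C-terminal dileucine motifs deleted), loaded with Calcium 6 dye for 2 h at 37 °C in HBSS/20 mM HEPES pH 7.4. Fluorescence recorded 10 s baseline then 170 s after compound addition. Max-minus-min response over baseline fitted by 4-parameter logistic for EC50.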

[2] = test system: TFEB; experiment: TFEB translocation assay in HeLa cells (nuclear to cytoplasmic TFEB ratio, high-content imaging); assay type: cell-based; settings: 90 mins incubation at 37° C., ratio of nuclear to cytoplasmic TFEB
Description: Example B2. TFEB Translocation Assay
Rabbit TFEB antibody, Cell Signaling Technology #4240S
PFA 16% MeOH-free, Election Microscopy Sciences #50-980-487
HCS CellMask Deep Red, ThermoFisher Scientific #H32721
Plates: Perkin Elmer Phenoplate #605730 black optically clear, tissue culture treated 384-well plate
Example B2.2 Method, Day 1: Cells Seeded in 384WP
Cells were seeded in the afternoon. The outer one row of the plate was not used to avoid outer well edge effects.
HeLa cells were detached using trypsin, and the cells were counted using a cell counter.
4000 HeLa cells were seeded per well in […] growth media (DMEM with 10% FBS, 1 mM sodium pyruvate and Pen-Strep).
Example B2.3 Method, Day 2: Assay with TRPML1 Compounds+Staining
Compounds were added to cells using a Tecan D300e dispenser.
Cells were incubated for 90 mins at 37° C. with the compounds (compound range: 80 nM-[…] (2× step dilution—8 dilution steps, 3 replicates per condition)
The cells were fixed by adding 16.5 μL of 16% PFA (4% final) and incubating for 15 min at room temperature.
The cells were washed with 3× in PBS-TX (PBS+0.1% Triton X-100)−1×100 μL followed by 2×50 μL.
The cells were blocked and permeabilized in 30 μL of blocking buffer (PBS-TX+5% goat serum) for 1 h.
The cells were incubated with TFEB antibody (1:200, CST 4240S) in 30 μL blocking buffer overnight at 4° C. The plates were kept damp to avoid evaporation.
Example B2.4 Method, Day 3: Staining+Imaging
The cells were washed 3× in PBS-TX—3×100 μL with a Biotek EL406 washer.
The cells were incubated with Goat anti-Rb Alexa-Fluor 488 (1:2000), cell mask (1:10,000) and Hoechst (1:10,000) in 30 μL blocking buffer for 1 h at room temperature. The solution was dispensed using a 5 μL peristaltic cassette (EL406).
The cells were washed 3× in PBS-TX—3×100 μL with a EL406 washer, then […] PBS was dispensed using a 5 μL peristaltic cassette (EL406).
The cells were imaged on an Operetta CLS High-content imaging system using a 20× water immersion objective (NA 1.0) the same day.
Image analysis was performed using Harmony V4.9 (Perkin Elmer). Briefly, nuclei were segmented from background-corrected images using Hoechst intensity, and cell body segmented using HCS CellMask DeepRed. A sliding parabola filter was applied to the AlexaFluor 488 channel (TFEB), before sum pixel intensity in the nuclear and cytoplasmic regions was calculated. A ratio of nuclear to cytoplasmic TFEB was used to define TFEB translocation from the cytosolic to nuclear compartment. The EC50 values derived by fitting the data to a sigmoidal dose response curve using Prism 9 (Graphpad).

TRPML1, sequence (Q9GZU1 17-572 limits assumed): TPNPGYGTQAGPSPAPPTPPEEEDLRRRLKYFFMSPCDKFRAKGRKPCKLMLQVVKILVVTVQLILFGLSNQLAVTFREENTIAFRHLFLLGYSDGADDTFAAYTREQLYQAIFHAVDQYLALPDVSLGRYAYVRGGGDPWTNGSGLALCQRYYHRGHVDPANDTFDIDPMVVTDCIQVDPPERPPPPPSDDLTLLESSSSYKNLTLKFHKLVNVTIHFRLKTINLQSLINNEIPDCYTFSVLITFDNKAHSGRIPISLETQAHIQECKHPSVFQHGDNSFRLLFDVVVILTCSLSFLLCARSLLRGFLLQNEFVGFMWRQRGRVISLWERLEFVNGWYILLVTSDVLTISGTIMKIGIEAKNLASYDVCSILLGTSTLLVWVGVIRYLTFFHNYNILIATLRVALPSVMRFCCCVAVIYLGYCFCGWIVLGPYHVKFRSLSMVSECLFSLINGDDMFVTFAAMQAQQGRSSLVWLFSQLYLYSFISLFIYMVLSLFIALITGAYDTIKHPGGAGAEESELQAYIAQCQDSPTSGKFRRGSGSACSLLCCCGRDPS

SMILES | EC50 [1] [nM] | EC50 ([2]; Homo sapiens, HeLa, 1.5 h) [nM] | EC50 [2] [nM] | EC50 ([2]; Homo sapiens, 1.5 h) [nM]
CN(CC1CCCCO1)c1ccccc1NS(=O)(=O)c1ccc(S(=O)(=O)N(C)C)cc1 (stereo not drawn) [Compound 108, N1,N1-dimethyl-N4-(2-(methyl((tetrahydro-2H-pyran-2-yl)methyl)amino)phenyl)benzene-1,4-disulfonamide] | 790 | 431 | – | –
CN(Cc1cscn1)c1c(F)cccc1NS(=O)(=O)c1ccc(S(=O)(=O)N(C)C)cc1 [Compound 68, N1-(3-fluoro-2-(methyl(thiazol-4-ylmethyl)amino)phenyl)-N4,N4-dimethylbenzene-1,4-disulfonamide] | 1030 | 2230 | – | –
CC(C)CN(C)c1c(Cl)cccc1NS(=O)(=O)c1ccc(S(=O)(=O)N(C)C)cc1 [Compound 76, N1-(3-chloro-2-(isobutyl(methyl)amino)phenyl)-N4,N4-dimethylbenzene-1,4-disulfonamide] | 521 | 330 | – | –
CN(c1ccccc1NS(=O)(=O)c1ccc(S(=O)(=O)N(C)C)cc1)C1(C)CCCCC1 [Compound 17, N1,N1-dimethyl-N4-(2-(methyl(1-methylcyclohexyl)amino)phenyl)benzene-1,4-disulfonamide] | 190 | 450 | – | –
CCCN(C)c1c(Cl)cccc1NS(=O)(=O)c1ccc(S(=O)(=O)N(C)C)cc1 [Compound 74, N1-(3-chloro-2-(methyl(propyl)amino)phenyl)-N4,N4-dimethylbenzene-1,4-disulfonamide] | 242 | 676 | – | –
CN(c1ccccc1NS(=O)(=O)c1ccc(S(=O)(=O)N(C)C)cc1)C1CCCC(F)(F)C1 (stereo not drawn) [Compound 104, N1-(2-((3,3-difluorocyclohexyl) (methyl)amino)phenyl)-N4,N4-dimethylbenzene-1,4-disulfonamide] | 715 | 573 | – | –
Cc1cccc(NS(=O)(=O)c2ccc(S(=O)(=O)N(C)C)cc2)c1N(C)Cc1cncs1 [Compound 72, N1,N1-Dimethyl-N4-(3-methyl-2-(methyl(thiazol-5-ylmethyl)amino)phenyl)benzene-1,4-disulfonamide] | 572 | 1760 | – | –
[2H]C([2H])([2H])N(c1ccccc1NS(=O)(=O)c1ccc(S(=O)(=O)N(C)C)cc1)C1CCCCC1 [Compound 102, N1-(2-(cyclohexyl(methyl-d3)amino)phenyl)-N4,N4-dimethylbenzene-1,4-disulfonamide] | 412 | 388 | – | –
CN(CC1(F)CC1)c1ccccc1NS(=O)(=O)c1ccc(S(=O)(=O)N(C)C)cc1 [Compound 95, N1-(2-(((1-fluorocyclopropyl)methyl)(methyl)amino)phenyl)-N4,N4-dimethylbenzene-1,4-disulfonamide] | 274 | 1270 | 915 | –
Cc1nc(CN(C)c2ccccc2NS(=O)(=O)c2ccc(S(=O)(=O)N(C)C)cc2)ccc1F [Compound 85, N1-(2-(((5-fluoro-6-methylpyridin-2-yl)methyl)(methyl)amino)phenyl)-N4,N4-dimethylbenzene-1,4-disulfonamide] | 447 | 1000 | – | –
CN(c1ccccc1NS(=O)(=O)c1ccc(S(=O)(=O)N(C)C)cc1)C1CCCC1 [Compound 24, N1-(2-(cyclopentyl(methyl)amino)phenyl)-N4,N4-dimethylbenzene-1,4-disulfonamide] | 280 | 1870 | – | –
CN(CC1(C)COC1)c1ccccc1NS(=O)(=O)c1ccc(S(=O)(=O)N(C)C)cc1 [Compound 49, N1,N1-dimethyl-N4-(2-(methyl((3-methyloxetan-3-yl)methyl)amino)phenyl)benzene-1,4-disulfonamide] | 1140 | – | – | 7970
CN(c1ccccc1NS(=O)(=O)c1ccc(S(=O)(=O)N(C)C)cc1)C1CCCCC1 [Compound 118, N1-(2-(cyclohexyl(methyl)amino)phenyl)-N4,N4-dimethylbenzene-1,4-disulfonamide] | 276 | 529 | – | –
CC(C)CCN(C)c1c(Cl)cccc1NS(=O)(=O)c1ccc(S(=O)(=O)N(C)C)cc1 [Compound 67, N1-(3-chloro-2-(isopentyl(methyl)amino)phenyl)-N4,N4-dimethylbenzene-1,4-disulfonamide] | 420 | 353 | – | –
CN(Cc1ccccc1)c1ccccc1NS(=O)(=O)c1ccc(S(=O)(=O)N(C)C)cc1 [Compound 26, N1-(2-(benzyl(methyl)amino)phenyl)-N4,N4-dimethylbenzene-1,4-disulfonamide] | 300 | 830 | – | –
CCN(C)c1c(Cl)cccc1NS(=O)(=O)c1ccc(S(=O)(=O)N(C)C)cc1 [Compound 78, N1-(3-chloro-2-(ethyl(methyl)amino)phenyl)-N4,N4-dimethylbenzene-1,4-disulfonamide] | 868 | 1460 | – | –
